The target of experiment [1] is T1, androgen receptor (Homo sapiens, UniProt P10275).
T1 construct: expressed in transfected cells; host or cells: PC-3 cells stably transformed with an androgen receptor expression vector (PC-3/AR)
T1 sequence (P10275 1-920): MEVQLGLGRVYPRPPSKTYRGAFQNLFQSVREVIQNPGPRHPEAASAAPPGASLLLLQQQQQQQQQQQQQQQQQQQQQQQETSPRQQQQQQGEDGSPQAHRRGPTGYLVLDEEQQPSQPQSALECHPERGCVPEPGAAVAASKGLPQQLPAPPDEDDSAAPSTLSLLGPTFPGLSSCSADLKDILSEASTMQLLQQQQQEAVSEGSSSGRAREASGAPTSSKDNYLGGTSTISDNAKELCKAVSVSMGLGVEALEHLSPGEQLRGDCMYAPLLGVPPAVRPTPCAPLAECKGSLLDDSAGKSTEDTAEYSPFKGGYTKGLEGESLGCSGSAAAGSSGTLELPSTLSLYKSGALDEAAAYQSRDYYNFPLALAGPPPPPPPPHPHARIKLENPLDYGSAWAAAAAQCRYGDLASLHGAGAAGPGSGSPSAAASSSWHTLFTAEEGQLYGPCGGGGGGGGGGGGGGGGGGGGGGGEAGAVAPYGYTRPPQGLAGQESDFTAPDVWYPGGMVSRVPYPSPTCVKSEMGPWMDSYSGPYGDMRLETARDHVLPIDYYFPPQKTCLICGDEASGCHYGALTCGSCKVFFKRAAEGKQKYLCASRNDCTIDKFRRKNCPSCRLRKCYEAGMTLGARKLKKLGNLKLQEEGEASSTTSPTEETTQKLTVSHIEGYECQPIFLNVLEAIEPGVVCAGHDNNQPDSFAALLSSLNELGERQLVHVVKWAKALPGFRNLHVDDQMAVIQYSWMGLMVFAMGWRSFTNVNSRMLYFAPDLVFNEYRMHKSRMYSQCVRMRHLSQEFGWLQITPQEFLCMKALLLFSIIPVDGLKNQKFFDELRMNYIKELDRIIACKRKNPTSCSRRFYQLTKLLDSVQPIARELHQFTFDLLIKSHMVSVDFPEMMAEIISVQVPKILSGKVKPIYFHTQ
Nature of the experiment: ARE17 luciferase reporter test system in PC-3/AR cells. The experiment is classed as cell-based. The source says: Preferred is the use of the luciferase reporter gene and of PC-3 cells that have been transformed in advance in a stable manner with an expression vector for the androgen receptor (PC-3/AR cells) or in a transient parallel manner. In addition, the use of the TK minimal promoter is preferred. […] A progestin is a synthetic progesterone analog.
(§1) Test systems were compared that contained either an HRE according to the invention that corresponds to Seq. ID No. 1 (ARE17) or the consensus-HRE with the sequence (SEQ ID NO: 5) 5′-[…]-3′ (ARE). All other components were respectively the same. Copies of the ARE17 were introduced upstream from the TK minimal promoter and the luciferase gene in the pGL3-basic vector (FIG. 1). PC-3/AR cells, which already express the androgen receptor in a stable manner, were saturated in RPMI1640/10% cFS/L-glutamine for 18-24 hours and then transformed for five hours with 100 ng of reporter plasmid and the Fu-gene transfection reagent (Boehringer Mannheim). Then, the medium was replaced by RPM1640/5% cFCS/L-glutamine, and the activity of the reporter gene measured 42 hours later.
(§2) Four copies of the elements were introduced upstream from the TK minimal promoter and the luciferase gene in the pGL3-basic vector (FIG. 1) and transformed in the PC-3/AR-cells, which already express the androgen receptor in a stable manner, as described above. The stimulation was carried out with the synthetic androgen R1881 (10^−9M or 10^−7M final concentration).
(In general: A reporter such as luciferase makes a cellular process visible.)

The target in experiment [2] is T1, androgen receptor. In words: consensus-HRE (ARE) luciferase reporter test system in PC-3/AR cells. In kind it is cell-based.
Source text: as §1, §2

As for `C[C@]1(O)CC[C@H]2[C@@H]3CCC4=CC(=O)CCC4=C3C=C[C@@]21C` [R1881], in experiment [1] (2 copies of ARE17, TK minimal promoter, PC-3/AR cells, androgen receptor expression vector), the “induction of the luciferase activity” value is reported as 10.5 fold. The “induction of the luciferase activity compared between ARE17, consensus-HRE and IDR17” value was “strongest induction” in experiment [1] (4 copies of ARE17, R1881 10^-9 M or 10^-7 M) and “weakest stimulation” in experiment [2] (4 copies of consensus-HRE, R1881 10^-9 M or 10^-7 M). In addition, the “increase of the luciferase activity” value in experiment [1] (4 copies of ARE17, TK minimal promoter, PC-3/AR cells) amounted to 46 fold. In addition, in experiment [1] (4 copies, 10^-9 M versus 10^-7 M final concentration), the “difference in stimulation between the two R1881 concentrations” value is on record as “No decisive difference”. Besides, the “induction of the luciferase activity (in words)” value in experiment [1] (ARE17, R1881 10^-7 M, measured 42 hours later) is “very strong induction”.
Turning to `CC(C)(O)C(=O)Nc1ccc([N+](=O)[O-])c(C(F)(F)F)c1` [hydroxyflutamide], in experiment [1] (4 copies, no androgen), the “stimulation of ARE17 in the absence of an androgen” value is “stimulated neither”. For the same molecule, the “stimulation of the consensus-HRE in the absence of an androgen” value in experiment [2] (4 copies, no androgen) is “stimulated neither”.
